“And” between values parts separate entries of the source, which are not always exact repeats. Equal values may be shown once. Where a name gives a salt, the structure may show the parent alone.
What was measured:
[1] = tested on: rats with monocrotaline induced pulmonary arterial hypertension; test: Pulmonary arterial hypertension efficacy model: monocrotaline rat, hemodynamic evaluation; type: in vivo, Male Sprague-Dawley rats; settings: for Right Ventricle (RV), Mean / Right Ventricle/Body Weight, Mean / Right Ventricular Pressure, Mean / Right Ventricular Systolic Pressure (RVSP), Mean: group mean; for Right Ventricle (RV), Mean / Right Ventricle/Body Weight, Mean / Right Ventricular Pressure, Mean / Right Ventricular Systolic Pressure (RVSP), Mean / Right Ventricle (RV) / Right Ventricle/Body Weight / Right Ventricular Pressure / Right Ventricular Systolic Pressure (RVSP): MCT 50 mg/kg s.c., Day 28; for Right Ventricle (RV) / Right Ventricle/Body Weight / Right Ventricular Pressure / Right Ventricular Systolic Pressure (RVSP): individual animals
Protocol: The studies were conducted for hemodynamic evaluation of quetiapine in anesthetized sprague dawley rats treated with monocrotaline (“MCT”) to induce pulmonary arterial hypertension. Sildenafil was used as an internal control to compare the effects of Quetiapine.
The effects of Quetiapine were evaluated in rats with monocrotaline induced pulmonary arterial hypertension using sildenafil as standard care treatment. Male Sprague-Dawley rats were orally administered vehicle, Quetiapine (40 mg/kg, divided into a BID regimen given every day for 28 days starting on Day 1), or sildenafil (100 mg/kg, administered once daily) (n=12 in each group). Rats received a single injection of monocrotaline (50 mg/kg, s.c.) on Study Day 1. On the twenty-eighth day following monocrotaline dosing, the rats were anesthetized with ketamine/xylazine for terminal monitoring of pulmonary and systemic arterial pressures along with heart rate.
Vehicle (0.5% Methylcellulose+0.2% Tween 80 in deionized water, Quetiapine (40 mg/kg dib for 28 days; Sildenafil ([…], administered once daily)
Male Sprague-Dawley rats in groups I, II, III and IV and V were administered 50 mg/kg of body weight of Monocrotaline in DMSO subcutaneously to induce PAH on day 1. The DMSO group (Group I, negative control) received a single dose of DMSO subcutaneously on day 1. The vehicle group received 5 ml of vehicle every morning. The Quetiapine as well as sildenafil groups were orally administered Quetiapine (40 mg/kg, divided into a BID regimen given every day for 28 days starting on Day 1), or sildenafil (100 mg/kg, administered once daily). On the twenty-eighth day after monocrotaline dosing, the rats were anesthetized with ketamine/xylazine for terminal monitoring of pulmonary and systemic arterial pressures along with heart rate.

[2] = after oral administration; cited from earlier work
[3] = Sildenafil 100 mg/kg p.o. once daily
[4] = Quetiapine 40 mg/Kg bid p.o. for 28 days

CCCc1nn(C)c2c(=O)[nH]c(-c3cc(S(=O)(=O)N4CCN(C)CC4)ccc3OCC)nc12 [Sildenafil]
Right Ventricle (RV), Mean [1, 3]: 0.247 g | Right Ventricle/Body Weight, Mean [1, 3]: 0.0006 g | Right Ventricular Pressure, Mean [1, 3]: 13.929 mmHg | Right Ventricular Systolic Pressure (RVSP), Mean [1, 3]: 29.648 mmHg | Right Ventricle (RV) [1, 3]: 0.236 g and 0.440 g and 0.228 g and 0.207 g and 0.232 g and 0.308 g and 0.229 g and 0.261 g and 0.083 g | Right Ventricle/Body Weight [1, 3]: 0.0007 g (3×) and 0.0009 g and 0.0006 g (4×) and 0.0003 g | Right Ventricular Pressure [1, 3]: 16.804 mmHg and 11.481 mmHg and 15.226 mmHg and 11.673 mmHg and 14.427 mmHg and 14.139 mmHg and 16.310 mmHg and 12.947 mmHg and 12.352 mmHg | Right Ventricular Systolic Pressure (RVSP) [1, 3]: 33.864 mmHg and 23.627 mmHg and 31.322 mmHg and 24.486 mmHg and 29.450 mmHg and 31.316 mmHg and 32.922 mmHg and 34.262 mmHg and 25.579 mmHg

OCCOCCN1CCN(C2=Nc3ccccc3Sc3ccccc32)CC1 [Quetiapine]
activity in controlling or reducing PAH compared with Sildenafil ([1]; MCT rats, Quetiapine 40 mg/kg bid vs Sildenafil 100 mg/kg): comparable among with Sildenafil activity | systolic and mean pulmonary arterial pressures compared to the vehicle group ([1]; after 28 days, Quetiapine 40 mg/kg bid, MCT rats): differences in systolic and mean pulmonary arterial pressures | Right Ventricle (RV), Mean [1, 4]: 0.276 g | Right Ventricle/Body Weight, Mean [1, 4]: 0.0008 g | Right Ventricular Pressure, Mean [1, 4]: 22.414 mmHg | Right Ventricular Systolic Pressure (RVSP), Mean [1, 4]: 47.511 mmHg | Right Ventricle (RV) [1, 4]: 0.336 g and 0.337 g and 0.312 g and 0.260 g and 0.193 g and 0.353 g and 0.225 g and 0.276 g and 0.190 g | Right Ventricle/Body Weight [1, 4]: 0.0010 g (3×) and 0.0007 g and 0.0006 g (3×) and 0.0012 g and 0.0008 g | Right Ventricular Pressure [1, 4]: 27.940 mmHg and 21.646 mmHg and 22.967 mmHg and 16.792 mmHg and 19.956 mmHg and 24.109 mmHg and 28.929 mmHg and 18.440 mmHg and 20.951 mmHg | Right Ventricular Systolic Pressure (RVSP) [1, 4]: 54.140 mmHg and 47.463 mmHg and 43.052 mmHg and 36.213 mmHg and 41.515 mmHg and 68.747 mmHg and 54.503 mmHg and 37.045 mmHg and 44.925 mmHg

OCCOCCN1CCN(C2=Nc3ccccc3Sc3ccccc32)CC1 [Quetiapine fumarate]
time to reach peak plasma concentrations [2]: 1.5 h

From patent US11478483B2, “Method of treating hypertension” (Cipla Limited, priority 2017, dated 2022)
